Data published in US20080182872A1, “USE OF ER-BETA SELECTIVE LIGANDS FOR TREATING ACUTE LUNG INJURIES” (WYETH, priority 2007, published 2008).

How the values were obtained:
S. pneumoniae = experiment: Murine pneumonia model (invasive pneumococcal pneumonia); assay type: in vivo; settings: 3 mg/kg IV at 24 and 48 hours after S. pneumoniae LD90 inoculation; moxifloxacin at 6, 24, 48 hours; all vehicle animals succumbed by 80 hours
Procedure: The effects of Compound 1 and Compound 2[2-(3-fluoro-4-hydroxyphenyl)-7-vinyl-1,3-benzoxazol-5-ol, or ERB-041] initially dosed at 3 mg/kg IV were being assessed on 7-day survival, microbial clearance and attenuation the acute and chronic pro-inflammatory effects of invasive pneumococcal pneumonia in lung tissue and distant organs in the murine pneumonia model. [Mohler J et al. Intensive Care Med 2003; 29:808-816.] Compound 1 and Compound 2 were tested to determine their ability to modulate the pathophysiology of severe infection and mortality from local and systemic inflammation from severe bacterial pneumonia. The compounds were delivered IV at 24 and 48 hours after inoculation with S. pneumoniae at an LD90 dose. Moxifloxacin was given at 6, 24 and 48 hours. The animals became bacteremic and develop a lethal pulmonary and systemic infection between 48 and 72 hours after the primary inoculation. All of the vehicle treated animals succumbed by 80 hours (3 days and 8 hours), while at 7 days 20% of the Compound 1—treated animals were alive and 60% of the Compound 2—treated animals survived.

[1] = test system: lung tissue gene expression; experiment: Lung tissue gene expression in the mCLP model (Affymetrix array, Ingenuity Pathways Analysis); assay type: in vivo; settings: mice subjected to CLP, intravenous treatment at CLP induction, lung tissue at 48 hours
Procedure: In order to further define the activity of Compound 1 in murine CLP, satellite groups of mice were treated intravenously at the time of CLP induction surgery with vehicle or Compound 1. An additional group of mice(surgical sham group) were subjected to the anesthesia and laparotomy, the cecum was manipulated but not ligated, and then the abdomen was closed. Because mCLP produces a progressive sepsis state, the animals become extremely ill and begin to succumb between 48-72 hours after mCLP. Thus, these animals were euthanized at 48 hours and lung tissue samples collected for gene expression analysis.
Messenger RNA was prepared by standard techniques, and the samples were processed on the Mouse430—2 Affymetrix commercial array, containing 45,037 non-control probe sets.
A heat map of differential gene expression was used to detect those gene transcripts with gene expression decreasing and those gene transcripts with gene expression increasing.
Using Ingenuity Pathways Analysis (IPA), 277 of the 522 probe sets were eligible for generating pathways. […] These pathways are identified in Table 4.

[2] = test system: peripheral blood mononuclear cells (PBMC) gene transcripts and plasma chemokines; experiment: Plasma proteome and PBMC gene transcription in the IV live E. coli challenge model in baboon; assay type: in vivo
Procedure: The plasma proteome and gene transcription of peripheral blood mononuclear cells (PBMC) were investigated using the baboon model of sepsis to evaluate the effect of Compound 1 on progression of the disease. The study comprised three treatment groups—sham-treated, vehicle, and Compound 1—of three baboons each. Blood samples were drawn at multiple time points (0, 0.5, 1, 2, 3, 4, 6, 24, 48, and 168 hours) from each baboon. NuGen amplified RNA was prepared from peripheral blood mononuclear cells (PBMC) isolated from the 0, 1, 6, and 24 hour blood samples. RNA levels were then measured using Affymetrix rhesus monkey Genechips, which interrogated 52,865 transcripts. Of interest was whether expression levels of one or more of these transcripts differed among the three treatment groups over the course of the study.
Genechip data were processed using Affymetrix MAS 5 software to calculate detection p-values and signal (expression) values. Detection p-values were used to generate Affymetrix Absent, Marginal, or Present calls (p-value≧0.065: Absent; 0.05≦p-value<0.065: Marginal; p-value<0.05: Present). Signal values were normalized by the standard MAS 5 procedure.
This filter reduced the number of transcripts for further analysis to 43,181.
To adjust for differences among animals in baseline expression values, change from baseline expression was analyzed. Change from baseline expression values were calculated using log2-transformed signal values. For each transcript, the log2 signal value for an animal at the 0 hour (baseline) sampling time was subtracted from the log2 signal value for the same animal for each later sampling time to yield change from baseline values for 1, 6, and 24 hours for that animal.
Repeated-measures analysis of variance (ANOVA) was used to compare (log2-transformed) change from baseline expression values in the treatment groups across the sampling time points. The ANOVA model included terms for treatment group and sampling time, and a term for the interaction between treatment group and time. The model also included a compound symmetry covariance parameter to account for any within-animal correlation between measurements at different sampling times from the same animal. Separate ANOVAs were run for each transcript. Pairwise comparisons between treatment groups were computed for mean concentrations across all times as well as for each time point separated. These pairwise comparisons were based on two-sided t-tests, with the error term for the t-tests based on the overall error term from the ANOVA.
Due to the substantial number of statistical tests performed, false discovery rates (FDRs) were used to adjust the raw p-values from F-tests and t-tests for multiple comparisons. The FDRs were computed to control the family-wise error level by calculating FDRs across transcripts separately for each set of comparisons (e.g., each pairwise comparison at a particular sampling time).

[3] = test system: CLP-induced polymicrobial sepsis; experiment: Murine cecal ligation and puncture (CLP) model of polymicrobial sepsis; assay type: in vivo, BALB/c mice; settings: score 0 normal to 4 marked diffuse inflammation and damage; oral dosing from time of CLP; euthanized at 48 hours; 8 animals; p<0.001 vs vehicle 3.08±0.74
Procedure: Murine cecal ligation and puncture is an accepted model of sepsis and was performed according to a previously published protocol [Opal et al., “evaluation of the safety of recombinant P-selectin glycoprotein ligand-immunoglobulin G fusion protein in experimental models of localized and systemic infection,” Shock 2001;15:285-90]. […] Acute lung injury is a documented component of this peritonitis-induced sepsis, and the model has been used to study the effects of other pharmaceutical agents on acute lung injury in sepsis [Tsujimoto et al. Shock 2005;23:39-44; and Singleton et al. Am J Physiol Regul Integr Comp Physiol (Jan. 18, 2007)].
Mice were euthanized at 48 hours following CLP and treatment with vehicle or Compound 1, both treatments having begun at the time of CLP.
Compound 1 was given at a range of doses orally at time 0, 24 and 48 hours following CLP in male and female BALB/c mice Survival, inflammatory markers, lung histopathology, and microbiologic parameters were assessed.
Multiple lung specimens were taken at necropsy from 8 vehicle- and 8 Compound 1—treated animals and evaluated by an independent pathologist unaware of the treatment group assignments. Treatment with Compound 1 reduced lung lesions (such as lung edema and lung inflammation) comparing to that with vehicle (Compound 1: 1.0±0.76 vs. vehicle: 3.08±0.74, p<0.001). […]

E. coli = experiment: Intravenous E. coli challenge model of sepsis in baboons; assay type: in vivo; settings: 10 mg/kg intravenously
Procedure: The intravenous E. coli infusion model of sepsis in baboons has been used for many years in sepsis research [Taylor F B Crit Care Med 2001 ;29:S78-89], and it has acute lung injury as one of its pathophysiological features [Sabharwal A K et al. Am J Resp Crit Care 1995; 151:758-67].
Compound 1 was given at a range of doses […] intravenously at a dose of 10 mg/kg in baboons 5 minutes before and then at 2, 24, 48, 72 and 96 hours following E. coli challenge. Survival, inflammatory markers, lung histopathology, and microbiologic parameters were assessed.
In the baboon study the lungs were examined at euthanasia of the animals when moribund or at the end of the 7 day experiment. Animals were assigned to vehicle and Compound 1 E. coli challenge. The lung specimens were evaluated by an independent pathologist unaware of treatment group assignments.

[4] = baboon plasma after E coli challenge
[5] = by 24 hours after E coli infusion, compared to vehicle treated animals

Compound | animals alive (survival) at 7 days (S. pneumoniae) | proinflammatory pathways (gene transcripts) in the lungs [1] | plasma MCP-1 [2, 4] | plasma MIP-1 alpha [2, 4] | Hypoxia inducible factor-2 Alpha (HIF2-ALPHA) gene transcript in PBMC [2, 5] | Nuclear receptor subfamily 4, group A, member 3 (NR4A3) gene transcript in PBMC [2, 5] | early growth response 3 (EGR-3) gene transcript in PBMC [2, 5] | lung lesions (lung edema and lung inflammation) histopathology score [3] | clinical signs of pulmonary injury (percent change in respiratory rate from baseline) (E. coli) | hyaline membrane formation (histopathology) (E. coli; lungs at euthanasia or day 7) | intrapulmonary hemorrhage (histopathology) (E. coli; lungs at euthanasia or day 7)
C=Cc1cc(O)cc2nc(-c3ccc(O)c(F)c3)oc12 [Compound 2, 2-(3-fluoro-4-hydroxyphenyl)-7-vinyl-1,3-benzoxazol-5-ol] | 60% | – | – | – | – | – | – | – | – | – | –
N#Cc1cc(-c2ccc(O)c(F)c2)cc2ccc(O)cc12 [Compound 1, 3-(3-fluoro-4-hydroxy-phenyl)-7-hydroxy-naphthalene-1-carbonitrile] | 20% | significantly decreased | significantly reduced | significantly reduced | decreased | decreased | decreased | 1.0±0.76 | attenuated | absence of hyaline membrane formation | decreased intrapulmonary hemorrhage
